Common to all, as to assay: DTP human tumour cell line panel, 48 h
Test [1] relates to KM12 colon.
In test [2] the test system is SK-MEL-5 melanoma.
Test [3] deals with M19-MEL melanoma.
The test system of test [4] is HT29 colon.
The subject of test [5] is KM20L2 colon.
Test [6] deals with U251 CNS.
The subject of test [7] is NCI-H460 lung.
Test [8] deals with A549 NSCLC.
The subject of test [9] is SK-MEL-28 melanoma.
Test [10] deals with LOX IMVI melanoma.
The test system of test [11] is RXF 393 renal.
The subject of test [12] is DMS 273 small cell lung.
Test [13] deals with HCT-15 colon.
Test [14] concerns SW-620 colon.
For test [15], the system named is CCRF-CEM leukemia.
Test [16] has as its system SF-539 CNS.
Test [17] deals with RPMI-8226 leukemia.
Test [18] relates to MCF7 breast.
Test [19] has as its system DLD-1 colon.
For test [20], the system named is DMS 114 small cell lung.

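In this assay, cells in 96-well plates receive the compound at five concentrations for 48 hours. Endpoints are linearly interpolated between the surrounding concentrations. TGI marks complete inhibition of growth.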

Regarding `CC(=O)C(=O)NC1/C=C(C)\C=C/C(O)C/C=C(C)\C=C/C(O)CC2OC(=O)C1(C)C(=O)C2C` (centres undefined), the TGI in test [1], in test [2], in [3], in test [4], in [5] and in [6] was greater than 100 µM in each case. The TGI in test [7], in [8], in test [9], in test [10], in test [11] and in test [12] was greater than 100 µM each time. In addition, the TGI was greater than 100 µM in test [13]; greater than 100 µM in test [14]; greater than 100 µM in [15]; greater than 100 µM in test [16]; 98.9 µM in test [17]; greater than 100 µM in [18]. For the same compound, the total growth inhibition concentration (TGI) in test [19] and in test [20] was greater than 100 µM in each case.

On to `C/C(=N\Nc1nc2cc(Cl)ccc2s1)c1ccccn1`, for which the total growth inhibition concentration (TGI) is greater than 84.8 µM in test [1]; 13.6 µM in [2]; 6.57 µM in test [6]; greater than 100 µM in test [7]; greater than 43.7 µM in test [8]; greater than 27.5 µM in test [9]. The total growth inhibition concentration (TGI) in test [10] is 13.5 µM; in test [13], greater than 79.9 µM; in test [14], 23.7 µM; in test [15] it was greater than 75.4 µM; in test [16], greater than 100 µM; in test [17], greater than 32.4 µM.

For the compound `CN(C)C(=O)Oc1c(Br)cc(Br)cc1C(=O)OCc1ccccc1`, the concentration for total growth inhibition (TGI) amounted to 75.9 µM in test [1]; 17.7 µM in test [2]; 44.3 µM in [3]; 19.2 µM in test [4]; 57.7 µM in test [5]; 56.2 µM in [6]. The TGI is 56.5 µM in test [7]; greater than 100 µM in [8]; 97.3 µM in test [9]; 60.2 µM in [10]; greater than 75.6 µM in [11]; greater than 73.2 µM in test [12]. Moreover, the TGI was greater than 81.7 µM in [13]; greater than 100 µM in [14]; 68.3 µM in [15]; 53.4 µM in test [16]; 52.4 µM in test [17]; greater than 70.3 µM in test [18]. Besides, the TGI in test [19] is greater than 96.8 µM; in test [20] it was 53.1 µM.

`O=C1CC(/C=C/c2ccco2)=C(O)C1=O`: the TGI came out at 27.6 µM in test [1]; 26.5 µM in test [2]; 30.4 µM in [4]; 28.6 µM in [6]; 35.6 µM in [7]; 62.8 µM in test [8]. For the same compound, the total growth inhibition concentration (TGI) in test [9] came out at 48.3 µM; in test [10], 25.4 µM; in test [11] it was 21.7 µM; in [13], 31.9 µM; in test [14], 31.6 µM; in test [15] it was 8.68 µM. The results for the TGI in [16], in test [17] and in [18] were 31.1 µM, 40.2 µM and 21.4 µM, respectively.

With `COC1OCC(O)C(NC(=O)N(C)N=O)C1O` (centres undefined), the concentration for total growth inhibition (TGI) in test [1], in test [2], in test [3], in test [4], in test [5] and in test [6] was greater than 100 µM in each case. Besides, the TGI in test [7], in [8], in test [9], in [10], in test [11] and in [12] was greater than 100 µM throughout. In addition, the concentration for total growth inhibition (TGI) in test [13], in [14], in test [15], in test [16], in test [17] and in test [18] was greater than 100 µM in each case. Besides, the TGI in test [19] and in [20] was greater than 100 µM each time.

Regarding `O=c1ccc2ccc(CBr)cc2o1`, the TGI was found to be 8.96 µM in [2]; 6.41 µM in test [4]; 3.36 µM in test [6]; 25.3 µM in test [7]; 30.1 µM in test [8]; 26.6 µM in [9]. Moreover, the TGI in test [10] was found to be 3.01 µM; in test [11] it was 3.47 µM; in test [13] it was 3.45 µM; in test [14], 3.2 µM; in test [16], 13.9 µM; in test [18], 3.87 µM.

With `CCN1c2ccccc2NC(=S)c2c1n[nH]c2-c1ccccc1`, the TGI in test [1] is 91.1 µM; in test [2] it was 43.2 µM; in test [4] it was greater than 100 µM; in test [6], 50.1 µM; in [7], 77.2 µM; in [8] it was 84.5 µM. Besides, the TGI in test [9] is greater than 100 µM; in test [10], greater than 100 µM; in [11], greater than 100 µM; in [13], 87.9 µM; in test [14], 84.7 µM; in test [15], 49.4 µM. Also, the results for the concentration for total growth inhibition (TGI) in test [16], in test [17] and in test [18] were greater than 100 µM, 43.9 µM and 74.9 µM, respectively.

Regarding `CCCCCCSc1nc(N)nc2nc[nH]c12`, the TGI is greater than 100 µM in test [1]; greater than 62.5 µM in [2]; greater than 100 µM in test [3]; greater than 100 µM in test [4]; greater than 100 µM in test [5]; greater than 100 µM in [6]. For the same compound, the total growth inhibition concentration (TGI) is greater than 100 µM in test [7]; greater than 100 µM in [8]; greater than 100 µM in test [9]; greater than 100 µM in test [10]; greater than 93 µM in test [11]; greater than 100 µM in test [12]. In addition, the TGI in test [13], in test [14], in [15], in test [16], in [17] and in test [18] was greater than 100 µM in each case. Moreover, in test [19], the TGI was greater than 100 µM.

For the compound `CCOC(=O)c1nc2ccc(OC)cc2c2c1Cc1ccccc1-2`, the concentration for total growth inhibition (TGI) in test [1], in test [2], in test [3], in test [4], in test [5] and in test [6] was greater than 100 µM each time. For the same compound, the total growth inhibition concentration (TGI) in test [7] was greater than 100 µM; in test [8], greater than 100 µM; in [9], greater than 100 µM; in test [10], greater than 100 µM; in [11], 71.6 µM; in test [12] it was greater than 100 µM. The TGI in test [13], in test [14], in test [16], in test [17], in test [19] and in [20] was greater than 100 µM throughout.

In the case of `CN(C)CCNC(=O)c1cccc2ccc(-c3ccc(Br)cc3)nc12`, the concentration for total growth inhibition (TGI) in test [1] came out at 15.5 µM; in [2] it was 2.92 µM; in test [3], 6.15 µM; in test [4], 7.24 µM; in test [5], 11.5 µM; in test [6], 12.2 µM. In addition, the TGI is 2.77 µM in test [7]; 4.29 µM in [8]; 13.2 µM in test [9]; 4.82 µM in [10]; 13.1 µM in [11]; 5.81 µM in test [12]. For the same compound, the TGI in test [13] turned out to be 12.5 µM; in test [14], 5.9 µM; in test [15], 7.75 µM; in test [16] it was 11.4 µM; in test [17], 5.93 µM; in test [18], 13.8 µM. In addition, the results for the total growth inhibition concentration (TGI) in test [19] and in [20] were 10.8 µM and 9.8 µM, respectively.

For the compound `CC1(C)OC[C@H](C(=N)OCc2ccccc2)O1`, the total growth inhibition concentration (TGI) in test [1], in test [2], in test [3], in [4], in test [5] and in test [6] was greater than 100 µM in each case. The concentration for total growth inhibition (TGI) in test [7], in test [8], in test [9], in test [11], in [12] and in test [13] was greater than 100 µM each time. The concentration for total growth inhibition (TGI) in [14], in test [15], in test [16], in test [17], in test [19] and in [20] was greater than 100 µM throughout.

The record behind these values is PubChem BioAssay (NCI).
